This experiment has as its system CEM cells HIV-1 protection, formazan growth assay. Description: NCI AIDS Antiviral Assay. To be noted: for IC50: measured here: growth of uninfected CEM cells. The method, boiled down: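 Protection of CEM cells against HIV-1 was scored from cell growth (soluble formazan) across five concentrations, with parallel uninfected cells. Lack of protection may reflect toxicity.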

The structures appear in SMILES notation. Activity calls are given as the source filed them.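 Rule for the calls: active = compounds giving half or more protection of infected cells from virus-caused growth loss, again on retest; inactive = the rest.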 Where a SMILES comes first, the peptide text is derived from it. [ ]: non-standard residue; d: D form. The star is where a group is joined. X10 = CC(C)CN(C[C@@H](O)[C@H](Cc1ccc(OCC(=O)*)cc1)NC(=O)O[C@H]1CCOC1)S(=O)(=O)c1ccc(N)cc1; NMeLeu(3R-OH) = CN[C@H](C(=O)O)[C@H](O)C(C)C; NMeL = CN[C@@H](CC(C)C)C(=O)O; NMeV = CN[C@H](C(=O)O)C(C)C; dNMeS = CN[C@H](CO)C(=O)O; Abu = CC[C@H](N)C(=O)O

Turning to `Cc1cc(C)nc(NS(=O)(=O)c2ccc(NC(=O)c3ccc(Cl)c4c(Nc5ccc(S(=O)(=O)Nc6nc(C)cc(C)n6)cc5)c5ccccc5nc34)cc2)n1`, the EC50 is above 45.7 µM and the IC50 was found to be 24.5 µM. The like results for `CCOC(=O)c1cccnc1C(OC(C)=O)OC(C)=O` were, in that order, above 891 µM and 158 µM.

Regarding `Cc1ccc(O)c(-c2cscn2)c1`, the EC50 is above 200 µM and the IC50 was 107 µM. As for `CCCC1=NC(C(F)(F)F)(C(F)(F)F)N=C(N2CCOCC2)O1`, the EC50 was above 200 µM and the IC50 was above 200 µM. With `O=[N+]([O-])c1ccc(CS(=O)(=O)c2ccccc2)cc1`, the outcome was inactive. Consider `O=C1C(=O)N(c2ccc(Cl)cc2Cl)C(=O)C(=O)C1c1nc2ccccc2o1`, for which the EC50 was above 85.1 µM and the IC50 was above 85.1 µM.

Consider `NNC(=O)/C(=C/c1ccc(Cl)cc1Cl)NC(=O)c1ccccc1`, for which the EC50 was above 135 µM and the IC50 turned out to be 110 µM. The matching figures for `CC(C)(O)[C@@H]1CC[C@](C)(C2[C@@H](O)C[C@@]3(C)C4C[C@H](OC5OCC(O)C(O)C5O)[C@H]5C(C)(C)[C@@H](OC6OCC(O)C(O)C6OC6OCC(O)C(O)C6O)CC[C@@]56C[C@@]46CC[C@]23C)O1` (stereo partly specified): above 200 µM and above 200 µM. The matching figures for `Cc1ccc(-c2c(C#N)c(N)nc3c2CCS(=O)(=O)c2ccccc2-3)cc1`: above 200 µM and 77.6 µM. For `NC(N)=NS(=O)(=O)c1ccc(N=c2c3ccccc3n(Cc3ccccc3)c3ccccc23)cc1`, the outcome was inactive.

On to `CC(C)(C)C(C#N)(C#N)c1ccc(C(C#N)(C#N)C(C)(C)C)nn1`, for which the outcome was inactive. Consider `CC[C@@H]1NC(=O)[C@H]([C@H](O)C(C)C)N(C)C(=O)[C@H](C(C)C)N(C)C(=O)[C@H](CC(C)C)N(C)C(=O)[C@H](CC(C)C)N(C)C(=O)[C@@H](C)NC(=O)[C@H](CCCCNC(=O)COc2ccc(C[C@H](NC(=O)O[C@H]3CCOC3)[C@H](O)CN(CC(C)C)S(=O)(=O)c3ccc(N)cc3)cc2)NC(=O)[C@H](CC(C)C)N(C)C(=O)[C@H](C(C)C)NC(=O)[C@H](CC(C)C)N(C)C(=O)[C@@H](CO)N(C)C1=O` (cyclo([NMeLeu(3R-OH)][Abu][dNMeS][NMeL]V[NMeL]K(X10)[dA][NMeL][NMeL][NMeV])), for which the EC50 is 0.0501 µM and the concentration for half-maximal inhibition (IC50) came to 42.7 µM. The matching figures for `COC(=O)C1(CCCCCBr)CCCCCCCCCCC1=O` (stereo unspecified): above 200 µM and 35.5 µM. The like results for `O=C(O)CN(CC(=O)O)Cc1ccn(-c2cccc(-n3ccc(CN(CC(=O)O)CC(=O)O)n3)n2)n1` were, in that order, above 200 µM and above 200 µM. The like results for `O=C1C=CC[C@H](/C=C/C[C@@H](O)C[C@H](O)/C=C/c2ccccc2)O1` were, in that order, above 200 µM and 5.37 µM. With `N.N.N.N.O=C([O-])C(Cl)Cl.O=C([O-])C(Cl)Cl.[Co+3].[O-][Cl+3]([O-])([O-])[O-]`, the outcome was inactive.

In the case of `COC(CN(C)C(=S)Nc1cccc2ccccc12)OC`, the EC50 was above 200 µM and the IC50 came to 79.4 µM.

With `Cc1ccnc2n[nH]nc12`, the EC50 is above 1860 µM and the IC50 was 372 µM. The matching figures for `CCC(CON(C)c1ccccc1)(SC)SC`: above 200 µM and 105 µM. As for `O=C1c2ccccc2C(=O)c2c(NCCNCCO)ccc(O)c21`, the outcome was inactive. Regarding `CC(C)(C)C1COP(=S)(c2ccccc2)OC1` (stereo unspecified), the EC50 is above 69.2 µM and the concentration for half-maximal inhibition (IC50) is above 69.2 µM. Take `CCOC(=O)C1(C(C)C)OC2CCCCCN2C1=O` (stereo unspecified): the EC50 was above 589 µM and the IC50 is above 589 µM. Consider `C=C(Cc1ccc(O)cc1)C(=C)Cc1ccc(O)cc1`, for which the EC50 was above 200 µM and the IC50 is 69.2 µM. The matching figures for `Cc1ccc(/C=N/NC2=NCCN2)s1`: above 200 µM and 166 µM. The matching figures for `CC1NOC(=O)C1N=Nc1cccc(Cl)c1` (stereo unspecified): 5.25 µM and 30.2 µM. With `C=CC1CN(C(=O)OCC)N(C(=O)OCC)C1CCc1ccccc1` (stereo unspecified), the EC50 is above 200 µM and the IC50 is 72.4 µM.

For the molecule `O=C1CC23CCC12CCCC3=O` (stereo unspecified), the EC50 is above 550 µM and the IC50 is above 550 µM.

Regarding `CC1=C(C(=O)NNC(=O)c2ccccc2)CC(C(=O)NNC(=O)c2ccccc2)=C(C)N1`, the EC50 is above 200 µM and the IC50 is above 200 µM. As to `COC(=N)CCNC(=O)C(O)C(O)C(=O)NCCC(=N)OC` (stereo unspecified), the EC50 was above 646 µM and the IC50 was above 646 µM. Regarding `NNC(=S)NNC(N)=O`, the EC50 was 58.9 µM and the IC50 was above 200 µM. The matching figures for `CCCCCCOP(=O)(OCCCCCC)OC(C(=O)OC)C(F)(F)F` (stereo unspecified): above 200 µM and 44.7 µM.

On to `N#CC(C(=O)CCCC(=O)Nc1ccc(Cl)cc1Cl)c1ccccc1` (stereo unspecified), for which the EC50 was above 661 µM and the IC50 was above 661 µM. `C[n+]1cccc2ccc3cccnc3c21`: the EC50 is above 200 µM and the IC50 came out at 7.94 µM. As for `O=[N+]([O-])c1ccc(OCn2ncc3ccc([N+](=O)[O-])cc32)cc1`, the EC50 is above 200 µM and the IC50 was above 200 µM. With `CCN(CC)CCC(=O)/C=C/c1ccc(Cl)c(Cl)c1`, the EC50 is above 200 µM and the IC50 turned out to be 5.13 µM. On to `CN1CCC(O)(c2ccc(F)cc2)C(C(=O)c2ccc(F)cc2)C1` (stereo unspecified), for which the EC50 is above 200 µM and the IC50 was found to be 72.4 µM. The matching figures for `CC1=NN(c2ccc(S(=O)(=O)O)cc2)/C(=N/NC(N)=S)C1`: above 759 µM and 427 µM. The matching figures for `OCc1ccc[n+](CCc2c[nH]c3ccccc23)c1`: above 759 µM and 316 µM. The like results for `Cc1ccc(SCC(OCn2cnc3c(N)ncnc32)[C@H](C)F)cc1` (stereo partly specified) were, in that order, above 200 µM and 191 µM. As to `Cc1ccc2nc(-c3ccccc3Cl)[nH]c2c1`, the EC50 was 14.8 µM and the IC50 was determined as 29.5 µM. The like results for `O=C(O)CCc1cccc2c1oc1c(CCC(=O)O)cccc12` were, in that order, above 794 µM and 191 µM. The like results for `COC(=O)c1cc2c(cc1CC(Cc1ccc3c(c1)CCC3)C(=O)OC)CCC2` (stereo unspecified) were, in that order, above 200 µM and 126 µM. The matching figures for `COc1ccc(-c2cc(=O)c3c(OC)c(OC)c(OC)c(OC)c3o2)c(OC)c1`: above 200 µM and 20.4 µM. Take `O=C1NC(N2CCCCC2)=N/C1=C\c1cccs1`: the EC50 was above 200 µM and the IC50 came out at 151 µM. For `O=C(O)CCCNS(=O)(=O)c1ccc2ccccc2c1`, the outcome was inactive.

On to `COc1ccccc1NC(=S)Nc1ccccn1`, for which the EC50 is above 200 µM and the IC50 is above 200 µM. Regarding `CCOC(=O)C(NC(=O)c1ccccc1)[CH](C)[Sn]([c]1ccccc1)([c]1ccccc1)[c]1ccccc1` (stereo unspecified), the EC50 is above 200 µM and the IC50 is 13.5 µM. As for `Cc1cc(C)nc(NS(=O)(=O)c2ccc(NNc3c4ccccc4nc4c(C(=O)Nc5ccc(S(=O)(=O)Nc6cc(C)on6)cc5)cccc34)cc2)n1`, the EC50 was above 200 µM and the IC50 is 34.7 µM. The matching figures for `CC(Br)(c1ccccc1)[P+](c1ccccc1)(c1ccccc1)c1ccccc1` (stereo unspecified): above 20 µM and 0.871 µM.

Take `O=S(CCc1ccccc1)Nc1ccccc1` (stereo unspecified): the EC50 was above 200 µM and the IC50 is above 200 µM.

For `O=C(O)C(=O)O.[NH-]C1CCCC1[NH-].[Pt+2]` (stereo unspecified), the EC50 is above 200 µM and the IC50 worked out at 9.55 µM.

For `CN(C)c1ccc(/C=C(\C#N)c2ccc(Cl)cc2Cl)cc1`, the EC50 is above 200 µM and the IC50 worked out at 3.39 µM. Turning to `CN(C)CCC(=O)C(=Cc1ccc(O)cc1)C(=O)CCN(C)C`, the EC50 is above 646 µM and the half-maximal inhibitory concentration (IC50) worked out at 43.7 µM.

Consider `C#C[C@]1(O)CCC2C3CCc4cc(Oc5nc(F)nc(-n6c(C)nc7cc8ccccc8cc76)n5)ccc4C3CCC21C` (stereo partly specified), for which the EC50 is above 200 µM and the IC50 came to 28.2 µM.

For `O=c1[nH]c(=O)n(C2CC(F)C(CO)O2)cc1CO` (stereo unspecified), the EC50 was above 479 µM and the IC50 turned out to be 186 µM. The like results for `O=c1[nH]c2[nH]c(-c3ccc(Br)cc3)cc2c2ccccc12` were, in that order, above 200 µM and above 200 µM. On to `O=[N+]([O-])c1ccc(C=NC23CC4CC(CC(C4)C2)C3)cc1`, for which the result was inactive.

On to `NC(=O)C1CCCN1C(=O)C(Cc1cnc[nH]1)NC(=O)C1CCCC1` (stereo unspecified), for which the EC50 was above 200 µM and the IC50 was above 200 µM.

Turning to `CCOC1OC(c2ccccc2)=NS(=O)(=O)C1(C)C` (stereo unspecified), the EC50 is above 891 µM and the IC50 was found to be 513 µM. The like results for `Nc1nc(Cl)nc(Cl)n1` were, in that order, above 200 µM and above 200 µM.

With `Cc1noc(C)c1-n1nc2ccc3nonc3c2n1`, the EC50 is above 200 µM and the IC50 is above 200 µM. Regarding `NCCCNCCSSC/C=C\CSSCCNCCCN`, the result was inactive. `O=C(OCCN=c1c2ccccc2ccc2ccccc12)c1cc([N+](=O)[O-])cc([N+](=O)[O-])c1`: the EC50 is above 200 µM and the IC50 turned out to be 158 µM. The like results for `COC(=O)C1(NC(=O)C(N)CC(=O)O)C(C)C1C` (stereo unspecified) were, in that order, above 200 µM and above 200 µM. The like results for `c1ccc2c(c1)n1c(N3CCCC3)[n+]3ccccc3c1c1c3cccc[n+]3c(N3CCCC3)n21` were, in that order, 57.5 µM and above 100 µM.

Take `CC1(C)OC(=O)C(=Cc2cccc(F)c2)C(=O)O1`: the EC50 is above 525 µM and the IC50 is above 525 µM. In the case of `COC(=O)c1cc(C(CCl)c2cc(C(=O)OC)c(O)c(Br)c2C)c(C)c(Br)c1O`, the result was inactive. For `CCOC(=O)C1OC1C1CCCc2ccccc21` (stereo unspecified), the EC50 is above 200 µM and the IC50 was above 100 µM.

As for `O=C(c1ccccc1)[C@@]12COc3ccccc3[C@@H]1ON=C2c1ccccc1`, the EC50 was above 10.7 µM and the IC50 is above 10.7 µM. With `N#CCN1CCN(CC#N)CCN(CC#N)CCN(CC#N)CC1`, the EC50 was above 200 µM and the IC50 was found to be 28.2 µM.
